Reference: the supplement of paper PMC11451515

Tests used:
Details in all cases: 48 h
SEM cells [1] = experiment: cell viability relative to DMSO control; higher = less cytotoxic
Method in brief: (§1)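 Before seeding, each leukemia line was adapted for at least four passages in each medium. NOMO1 or SEM cells (500 cells/well) and P12-Ichikawa cells (1000 cells/well) went into 1536-well plates at 5 μl, then received library compounds in DMSO by pin dosing across 11 threefold concentrations, 47 μM to 0.79 nM. Readout was CellTiter-Glo One luminescence after 48 h at 37°C, and viability is given as a per-plate percentage of DMSO wells, with cell-free wells as background.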

P12-Ichikawa [2] = experiment: AUC of viability dose-response curve (% viability x log10 dose units); higher = less sensitive
Method in brief: (§2)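 Leukemia cells adapted to each medium were seeded in 1536-well plates (500 or 1000 cells/well) and given library compounds in DMSO for 48 h at 37°C. The 11 threefold doses spanned 47 μM to 0.79 nM, and CellTiter-Glo One luminescence was normalised per plate to DMSO and cell-free wells before four-parameter log-logistic fitting on log10 dose. Area under the curve was integrated with the trapezoidal rule, scaling curves above full viability and removing curves that failed quality control.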

SEM cells [3] = experiment: as above
Method in brief: as §2

NOMO1 [4] = experiment: as above
Method in brief: as §2

P12-Ichikawa [5] = experiment: cell viability relative to DMSO control; higher = less cytotoxic
Method in brief: as §1

NOMO1 [6] = experiment: as above
Method in brief: as §1

CCCC1=NC(=C2[N]1NC(=N\C2=O)/C3=CC(=CC=C3OCC)[S+]([O-])(=O)N4CCN(CC)CC4)C
SEM cells [1], RPMI 5 mM glucose + 10% dialyzed FBS
Details	cell viability [%]
0.000781 µM	125
0.00234 µM	115
0.00702 µM	128
0.0211 µM	131
0.0632 µM	143
0.19 µM	134
0.569 µM	140
1.71 µM	145
5.12 µM	106
15.4 µM	10.4
46.1 µM	6.51

AUC of viability dose-response curve
Details	NOMO1 [4]	P12-Ichikawa [2]	SEM cells [3]
HPLM + 10% dialyzed FBS	402	421	417
RPMI 5 mM glucose + 10% FBS	409	402	407
RPMI 5 mM glucose + 10% dialyzed FBS	406	399	401

CO[C@H]1/C=C/O[C@@]2(C)Oc3c(C)c(O)c4c(O)c(c5c(nc6cc(C)ccn65)c4c3C2=O)NC(=O)/C(C)=C\C=C\[C@H](C)[C@H](O)[C@@H](C)[C@@H](O)[C@@H](C)[C@H](OC(C)=O)[C@@H]1C
cell viability [%]
Details	NOMO1 [6]	P12-Ichikawa [5]	SEM cells [1]
HPLM + 10% dialyzed FBS, 0.000781 µM	104	108	100
HPLM + 10% dialyzed FBS, 0.00234 µM	119	98.3	97.7
HPLM + 10% dialyzed FBS, 0.00702 µM	112	107	100
HPLM + 10% dialyzed FBS, 0.0211 µM	96.1	106	107
HPLM + 10% dialyzed FBS, 0.0632 µM	116	107	92.5
HPLM + 10% dialyzed FBS, 0.19 µM	110	106	112
HPLM + 10% dialyzed FBS, 0.569 µM	96	104	113
HPLM + 10% dialyzed FBS, 1.71 µM	93.8	102	104
HPLM + 10% dialyzed FBS, 5.12 µM	35.5	50.2	47.2
HPLM + 10% dialyzed FBS, 15.4 µM	91.7	89.4	70
HPLM + 10% dialyzed FBS, 46.1 µM	11.1	9.34	1.92
RPMI 5 mM glucose + 10% FBS, 0.000781 µM	107	103	106
RPMI 5 mM glucose + 10% FBS, 0.00234 µM	99.1	103	120
RPMI 5 mM glucose + 10% FBS, 0.00702 µM	97.7	113	109
RPMI 5 mM glucose + 10% FBS, 0.0211 µM	110	102	125
RPMI 5 mM glucose + 10% FBS, 0.0632 µM	82.7	114	94.9
RPMI 5 mM glucose + 10% FBS, 0.19 µM	105	101	102
RPMI 5 mM glucose + 10% FBS, 0.569 µM	87.6	94.1	115
RPMI 5 mM glucose + 10% FBS, 1.71 µM	98.7	103	111
RPMI 5 mM glucose + 10% FBS, 5.12 µM	43.8	46.5	40.5
RPMI 5 mM glucose + 10% FBS, 15.4 µM	91.4	72.8	63.1
RPMI 5 mM glucose + 10% FBS, 46.1 µM	44.9	35.1	4.47
RPMI 5 mM glucose + 10% dialyzed FBS, 0.000781 µM	99.4	105	104
RPMI 5 mM glucose + 10% dialyzed FBS, 0.00234 µM	97.8	100	109
RPMI 5 mM glucose + 10% dialyzed FBS, 0.00702 µM	95.3	101	98.6
RPMI 5 mM glucose + 10% dialyzed FBS, 0.0211 µM	108	99.9	109
RPMI 5 mM glucose + 10% dialyzed FBS, 0.0632 µM	86.3	101	90.2
RPMI 5 mM glucose + 10% dialyzed FBS, 0.19 µM	108	97.7	96.8
RPMI 5 mM glucose + 10% dialyzed FBS, 0.569 µM	99.9	102	97.1
RPMI 5 mM glucose + 10% dialyzed FBS, 1.71 µM	99.7	92.9	82.1
RPMI 5 mM glucose + 10% dialyzed FBS, 5.12 µM	28.9	41.8	32
RPMI 5 mM glucose + 10% dialyzed FBS, 15.4 µM	82.3	77.3	50.8
RPMI 5 mM glucose + 10% dialyzed FBS, 46.1 µM	18.6	33.7	1.61

SEM cells [3]
Details	AUC of viability dose-response curve
HPLM + 10% dialyzed FBS	410
RPMI 5 mM glucose + 10% FBS	394
RPMI 5 mM glucose + 10% dialyzed FBS	375

NCC1(CC(=O)O)CCCCC1
cell viability [%], SEM cells [1]
Details	HPLM + 10% dialyzed FBS	RPMI 5 mM glucose + 10% dialyzed FBS
0.000781 µM	102	126
0.00234 µM	113	122
0.00702 µM	107	113
0.0211 µM	122	119
0.0632 µM	120	124
0.19 µM	130	117
0.569 µM	96.2	78
1.71 µM	59.5	59.1
5.12 µM	121	140
15.4 µM	127	136
46.1 µM	132	112

AUC of viability dose-response curve
Details	NOMO1 [4]	P12-Ichikawa [2]	SEM cells [3]
HPLM + 10% dialyzed FBS	468	466	460
RPMI 5 mM glucose + 10% FBS	442	434	475
RPMI 5 mM glucose + 10% dialyzed FBS	458	459	459

Fc1ccc(Cl)cc1-c1nc(Nc2ccncc2)c2nccnc2n1
AUC of viability dose-response curve
Details	NOMO1 [4]	P12-Ichikawa [2]	SEM cells [3]
HPLM + 10% dialyzed FBS	461	463	453
RPMI 5 mM glucose + 10% FBS	438	457	464
RPMI 5 mM glucose + 10% dialyzed FBS	442	451	467
